According to patent US9636418B2 (priority 2013, dated 2017):
“And” between values parts separate entries of the source, which are not always exact repeats. Equal values may be shown once. Read-outs that look alike come from different tables or passages of the source.

Key:
Assay in all cases: cell-based
hNav1.3 = hNav1.3 (Homo sapiens, UniProt Q9NY46); conditions: IonWorks Quattro; read-out: IC50 Nav1.3
hNav1.4 [1] = target: T1, hNav1.4 (Homo sapiens, UniProt P35499); conditions: for IC50: IonWorks Quattro, read-out: IC50 Nav1.4
hNav1.5 [2] = target: T2, hNav1.5 (Homo sapiens, UniProt Q14524); conditions: PatchXpress; * = at high concentrations compound would wash off slowly or not at all; read-out: PX hNav1.5 Tonic IC50
hNav1.7 [3] = target: T3, hNav1.7 (Homo sapiens, UniProt Q15858); conditions: IonWorks Quattro; read-out: IC50 Nav1.7
hNav1.5 [4] = target: T2, hNav1.5; conditions: IonWorks Quattro; read-out: IC50 Nav1.5
hNav1.4 [5] = target: T1, hNav1.4; conditions: for IC50: PatchXpress, * = at high concentrations compound would wash off slowly or not at all, read-out: PX hNav1.4 Tonic IC50
hNav1.7 [6] = target: T3, hNav1.7; assay type: cell-based; conditions: PatchXpress; * = at high concentrations compound would wash off slowly or not at all; read-out: PX hNav1.7 Tonic IC50

hNav1.3, sequence (Q9NY46 whole entry): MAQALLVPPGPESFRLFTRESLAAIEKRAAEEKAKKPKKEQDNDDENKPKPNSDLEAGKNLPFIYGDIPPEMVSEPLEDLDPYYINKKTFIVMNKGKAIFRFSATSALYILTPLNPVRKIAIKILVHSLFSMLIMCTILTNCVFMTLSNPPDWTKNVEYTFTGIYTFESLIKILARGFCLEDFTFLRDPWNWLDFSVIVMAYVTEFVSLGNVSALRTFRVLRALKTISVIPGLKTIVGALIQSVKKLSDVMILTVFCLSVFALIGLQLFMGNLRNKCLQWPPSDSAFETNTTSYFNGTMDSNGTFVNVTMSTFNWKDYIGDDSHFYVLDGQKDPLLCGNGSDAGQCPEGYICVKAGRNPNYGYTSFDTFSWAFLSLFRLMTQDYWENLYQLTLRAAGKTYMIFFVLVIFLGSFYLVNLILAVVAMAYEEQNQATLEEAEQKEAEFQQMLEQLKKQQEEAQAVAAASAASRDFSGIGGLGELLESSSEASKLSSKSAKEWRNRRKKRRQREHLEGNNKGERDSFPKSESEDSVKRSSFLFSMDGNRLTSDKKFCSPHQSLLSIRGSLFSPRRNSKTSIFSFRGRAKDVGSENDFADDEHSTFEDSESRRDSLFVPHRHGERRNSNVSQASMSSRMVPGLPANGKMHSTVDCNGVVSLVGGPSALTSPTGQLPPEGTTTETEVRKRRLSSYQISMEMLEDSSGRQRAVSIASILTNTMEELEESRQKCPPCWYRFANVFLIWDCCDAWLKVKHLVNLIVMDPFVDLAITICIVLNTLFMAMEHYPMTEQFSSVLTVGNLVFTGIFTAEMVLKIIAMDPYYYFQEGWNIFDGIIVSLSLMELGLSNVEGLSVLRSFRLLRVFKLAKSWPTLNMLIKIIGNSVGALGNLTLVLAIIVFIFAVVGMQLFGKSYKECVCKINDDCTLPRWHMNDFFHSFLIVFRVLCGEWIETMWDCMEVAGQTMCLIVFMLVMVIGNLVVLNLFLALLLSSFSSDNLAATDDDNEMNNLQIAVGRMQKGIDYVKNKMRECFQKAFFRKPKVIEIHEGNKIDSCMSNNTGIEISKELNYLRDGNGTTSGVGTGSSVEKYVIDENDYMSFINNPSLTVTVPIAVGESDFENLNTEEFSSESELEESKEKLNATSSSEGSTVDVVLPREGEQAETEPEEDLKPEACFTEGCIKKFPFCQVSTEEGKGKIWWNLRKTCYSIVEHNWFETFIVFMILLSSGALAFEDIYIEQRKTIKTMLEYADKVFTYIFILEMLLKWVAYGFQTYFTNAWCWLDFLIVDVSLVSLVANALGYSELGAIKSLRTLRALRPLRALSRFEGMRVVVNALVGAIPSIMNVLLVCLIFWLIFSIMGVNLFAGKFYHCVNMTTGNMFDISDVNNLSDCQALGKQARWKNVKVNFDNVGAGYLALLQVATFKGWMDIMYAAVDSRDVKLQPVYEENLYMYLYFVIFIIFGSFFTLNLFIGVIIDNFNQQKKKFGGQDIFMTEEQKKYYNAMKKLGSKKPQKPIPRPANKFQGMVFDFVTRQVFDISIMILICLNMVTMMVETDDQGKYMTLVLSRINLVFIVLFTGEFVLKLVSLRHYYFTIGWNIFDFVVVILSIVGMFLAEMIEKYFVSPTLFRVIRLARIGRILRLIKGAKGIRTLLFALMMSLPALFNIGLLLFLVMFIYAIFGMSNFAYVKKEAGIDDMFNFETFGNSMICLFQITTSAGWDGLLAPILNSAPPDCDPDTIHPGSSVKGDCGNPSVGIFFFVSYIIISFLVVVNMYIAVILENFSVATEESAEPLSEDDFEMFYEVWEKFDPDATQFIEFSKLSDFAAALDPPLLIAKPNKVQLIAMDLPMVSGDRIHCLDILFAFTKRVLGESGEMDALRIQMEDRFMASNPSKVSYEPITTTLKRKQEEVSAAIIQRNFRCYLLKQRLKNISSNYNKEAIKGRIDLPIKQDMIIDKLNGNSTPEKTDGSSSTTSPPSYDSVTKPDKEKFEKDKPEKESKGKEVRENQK
T3 sequence (Q15858 whole entry): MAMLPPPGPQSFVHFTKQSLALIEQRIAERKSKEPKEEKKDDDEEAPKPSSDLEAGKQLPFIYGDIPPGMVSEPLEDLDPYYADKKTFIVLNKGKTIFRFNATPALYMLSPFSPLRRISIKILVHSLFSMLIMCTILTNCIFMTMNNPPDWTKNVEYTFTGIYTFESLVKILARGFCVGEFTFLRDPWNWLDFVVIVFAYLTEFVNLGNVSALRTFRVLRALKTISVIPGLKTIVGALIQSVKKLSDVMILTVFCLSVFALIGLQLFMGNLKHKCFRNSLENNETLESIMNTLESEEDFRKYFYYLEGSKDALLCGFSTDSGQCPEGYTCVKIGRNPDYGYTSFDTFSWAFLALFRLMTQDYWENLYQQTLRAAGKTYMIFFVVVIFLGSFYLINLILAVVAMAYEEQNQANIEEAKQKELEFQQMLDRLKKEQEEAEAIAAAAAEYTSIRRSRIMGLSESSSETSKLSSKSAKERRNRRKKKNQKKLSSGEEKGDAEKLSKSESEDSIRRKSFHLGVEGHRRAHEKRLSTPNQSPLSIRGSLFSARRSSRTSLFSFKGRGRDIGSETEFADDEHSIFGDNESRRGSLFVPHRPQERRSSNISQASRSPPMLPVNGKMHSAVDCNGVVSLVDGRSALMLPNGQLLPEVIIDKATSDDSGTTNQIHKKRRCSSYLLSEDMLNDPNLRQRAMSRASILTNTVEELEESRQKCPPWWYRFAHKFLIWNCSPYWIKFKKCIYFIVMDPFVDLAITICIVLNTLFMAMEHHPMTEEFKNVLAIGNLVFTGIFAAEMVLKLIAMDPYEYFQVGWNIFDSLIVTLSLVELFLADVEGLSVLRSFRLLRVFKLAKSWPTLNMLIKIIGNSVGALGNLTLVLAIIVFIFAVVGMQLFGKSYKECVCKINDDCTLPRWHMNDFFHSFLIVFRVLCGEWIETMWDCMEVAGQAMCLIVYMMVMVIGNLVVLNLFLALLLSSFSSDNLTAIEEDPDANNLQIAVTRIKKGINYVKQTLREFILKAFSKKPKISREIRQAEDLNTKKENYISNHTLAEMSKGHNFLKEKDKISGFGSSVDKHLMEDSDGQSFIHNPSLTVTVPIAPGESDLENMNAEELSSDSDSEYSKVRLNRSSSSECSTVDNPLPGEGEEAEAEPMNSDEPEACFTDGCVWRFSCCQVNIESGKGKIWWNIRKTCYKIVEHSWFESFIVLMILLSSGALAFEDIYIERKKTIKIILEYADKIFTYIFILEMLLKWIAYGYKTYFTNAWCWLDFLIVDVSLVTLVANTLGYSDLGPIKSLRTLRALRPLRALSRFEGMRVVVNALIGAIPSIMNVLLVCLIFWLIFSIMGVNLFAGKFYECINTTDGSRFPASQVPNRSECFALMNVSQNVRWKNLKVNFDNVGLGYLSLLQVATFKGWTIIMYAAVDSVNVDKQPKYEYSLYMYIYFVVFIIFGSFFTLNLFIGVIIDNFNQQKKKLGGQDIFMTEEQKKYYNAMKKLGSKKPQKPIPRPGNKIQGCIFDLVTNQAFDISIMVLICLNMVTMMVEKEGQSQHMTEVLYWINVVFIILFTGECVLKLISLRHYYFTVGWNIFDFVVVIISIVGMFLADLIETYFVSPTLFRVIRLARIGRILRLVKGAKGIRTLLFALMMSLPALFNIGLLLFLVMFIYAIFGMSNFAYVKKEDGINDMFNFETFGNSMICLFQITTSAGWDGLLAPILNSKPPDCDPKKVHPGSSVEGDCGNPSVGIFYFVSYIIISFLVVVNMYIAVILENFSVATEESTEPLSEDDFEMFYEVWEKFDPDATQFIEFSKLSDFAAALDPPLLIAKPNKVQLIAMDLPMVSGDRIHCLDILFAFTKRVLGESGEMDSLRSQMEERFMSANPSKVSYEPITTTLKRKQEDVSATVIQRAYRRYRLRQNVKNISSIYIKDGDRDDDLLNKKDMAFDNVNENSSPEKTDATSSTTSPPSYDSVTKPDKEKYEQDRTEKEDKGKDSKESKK

| Structure (SMILES) | IC50 (hNav1.3) | IC50 (hNav1.4 [1]) | Nav1.4/Nav1.7 (hNav1.4 [1]; ratio of IonWorks Quattro IC50 values) | IC50 (hNav1.5 [2]) [nM] | IC50 (hNav1.7 [3]) | IC50 (hNav1.5 [4]) [nM] | IC50 (hNav1.4 [5]) [nM] | Nav1.4/Nav1.7 (hNav1.4 [5]; ratio of PX IC50 values) | IC50 (hNav1.7 [6]) [nM] |
| --- | --- | --- | --- | --- | --- | --- | --- | --- | --- |
| CC[C@H](C)[C@H](NC(=O)[C@H](Cc1ccc(O)cc1)NC(=O)[C@H](CCCCN)NC(=O)[C@H](CCCNC(=N)N)NC(=O)[C@@H]1CSSC[C@@H]2NC(=O)[C@H](C)NC(=O)[C@H](CCCNC(=N)N)NC(=O)[C@H](CCCCN)NC(=O)[C@H](CO)NC(=O)[C@H](CC(=O)O)NC(=O)[C@@H]3CSSC[C@H](NC(=O)[C@H](CCC(=O)O)NC(=O)[C@H](CC(C)C)NC(=O)CNC(=O)[C@H](CCC(=O)O)NC(=O)[C@H](CSSC[C@H](NC(=O)[C@@H](N)Cc4ccc(O)cc4)C(=O)N[C@@H](CCC(N)=O)C(=O)N[C@@H](CCCCN)C(=O)N[C@@H](Cc4ccc(I)cc4)C(=O)N[C@@H](CCSC)C(=O)N[C@@H](Cc4c[nH]c5ccccc45)C(=O)N[C@@H]([C@@H](C)O)C(=O)N3)NC2=O)C(=O)N[C@@H](CCCCN)C(=O)N[C@@H](CC(C)C)C(=O)N[C@@H](Cc2c[nH]c3ccccc23)C(=O)N1)C(N)=O [compound 192] | 1300 nM | 3400 nM | 30 | > 1000 | 110 nM | > 5000 | 172 | 78 | 2.2 |
| CSCC[C@@H]1NC(=O)[C@H](Cc2c[nH]c3ccccc23)NC(=O)[C@H](CCCCN)NC(=O)[C@H](CCC(N)=O)NC(=O)[C@@H](NC(=O)[C@@H](N)Cc2ccc(O)cc2)CSSC[C@@H]2NC(=O)[C@@H]3CSSC[C@@H](C(=O)N[C@@H](CCCNC(=N)N)C(=O)N[C@@H](CCCCN)C(=O)N[C@@H](Cc4ccc(O)cc4)C(=O)N[C@@H](CC(C)C)C(N)=O)NC(=O)[C@H](Cc4c[nH]c5ccccc45)NC(=O)[C@H](CC(C)C)NC(=O)[C@H](CCCCN)NC(=O)[C@H](CSSC[C@H](NC(=O)[C@H]([C@@H](C)O)NC(=O)[C@H](Cc4c[nH]c5ccccc45)NC1=O)C(=O)N[C@@H](CC(=O)O)C(=O)N[C@@H](CO)C(=O)N[C@@H](CCCCN)C(=O)N[C@@H](CCCNC(=N)N)C(=O)N[C@@H](C)C(=O)N3)NC(=O)[C@H](CCC(=O)O)NC(=O)[C@H](CC(C)C)NC(=O)CNC(=O)[C@H](CCC(=O)O)NC2=O [compound 238] | 3000 nM and > 5000 nM | 4500 nM and > 5000 nM | – | 7330 | 84 nM and 230 nM | > 5000 | 626 | – | 2.6 |
| CSCC[C@@H]1NC(=O)[C@H](Cc2c[nH]c3ccccc23)NC(=O)[C@H](CCCCN)NC(=O)[C@H](CCC(N)=O)NC(=O)[C@@H](NC(=O)[C@@H](N)Cc2ccc(O)cc2)CSSC[C@@H]2NC(=O)[C@@H]3CSSC[C@@H](C(=O)N[C@@H](CCCNC(=N)N)C(=O)N[C@@H](CCCCN)C(=O)N[C@@H](Cc4ccc(O)cc4)C(=O)N[C@@H](Cc4ccc5ccccc5c4)C(N)=O)NC(=O)[C@H](Cc4c[nH]c5ccccc45)NC(=O)[C@H](CC(C)C)NC(=O)[C@H](CCCCN)NC(=O)[C@H](CSSC[C@H](NC(=O)[C@H]([C@@H](C)O)NC(=O)[C@H](Cc4c[nH]c5ccccc45)NC1=O)C(=O)N[C@@H](CC(=O)O)C(=O)N[C@@H](CO)C(=O)N[C@@H](CCCCN)C(=O)N[C@@H](CCCNC(=N)N)C(=O)N[C@@H](C)C(=O)N3)NC(=O)[C@H](CCC(=O)O)NC(=O)[C@H](CC(C)C)NC(=O)CNC(=O)[C@H](CCC(=O)O)NC2=O [compound 233] | 2200 nM | > 5000 nM | – | 1990 | 44 nM | > 5000 | 1220 | – | 4.6 |
